Laboratory results from paper PMC7229044, “Triterpenoid acids isolated from Schinus terebinthifolia fruits reduce Staphylococcus aureus virulence and abate dermonecrosis” (Scientific Reports, 2020).
Values after ≈ are worked out from the molar mass of the structure shown. “Also recorded” adds a separate entry of the source.

How the values were obtained:
[1] = test system: S. aureus AH1263; LAC (agr I); assay: Broth microdilution growth inhibition (MIC); type: cell-based, Staphylococcus aureus; details: for IC50: read-out: IC50 (growth)
Procedure: (§1) Fraction 430F-F5 and isolated compounds of S. terebinthifolia 1-3, were evaluated for minimum inhibitory concentrations (MICs) against the four agr groups, the biofilm test strain (UAMS-1) and NRS249 (for δ-toxin quantification experiments) following the Clinical Laboratory Standards Institute (CLSI) M100-S23 guidelines for microtiter broth dilution testing. Fraction, compounds 1-3 and vehicle were tested at a concentration range of 4 to 563 μM, using 2-fold serial dilution. The optical density (OD600nm) was measured with a BioTek Cytation 3 multimode plate reader, to calculate percent inhibition of growth. […] Control included the vehicle (DMSO) and antibiotic (Ampicillin, MP Biomedicals Inc). All tests were performed in triplicate and repeated using a new stock of bacteria on a separate day.

[2] = test system: S. aureus AH1747 (agr III); assay: Broth microdilution growth inhibition (MIC); type: cell-based, Staphylococcus aureus; details: for IC50: ≥50% growth inhibition; for IC50 / MIC: ND = not detected at 4–563 μM; for MIC: ≥90% growth inhibition
Procedure: as §1

[3] = test system: S. aureus NRS249 (agr I); assay: Broth microdilution growth inhibition (MIC); type: cell-based, Staphylococcus aureus; details: ND = not detected at 4–563 μM; for IC50: ≥50% growth inhibition; for MIC: ≥90% growth inhibition
Procedure: as §1

[4] = test system: S. aureus UAMS-1; assay: Broth microdilution growth inhibition (MIC); type: cell-based, Staphylococcus aureus; details: ND = not detected at 4–563 μM; for IC50: UAMS1, ≥50% growth inhibition
Procedure: as §1

[5] = test system: S. aureus UAMS-929; assay: Broth microdilution growth inhibition (MIC); type: cell-based, Staphylococcus aureus; details: for IC50: UAMS929, read-out: IC50 (growth)
Procedure: as §1

[6] = test system: agr activity, AH1677 (agr I); assay: microbe, parasite or virus in culture; type: cell-based; details: Staphylococcus aureus, 24 h, read-out: IC50 for quorum sensing inhibitory activity
Procedure: (§2) S. aureus agr reporter strains AH1677 (agr I), AH430 (agr II), AH1747 (agr III) and AH1872 (agr IV) were grown overnight in TSB supplemented with chloramphenicol at 37 °C while shaking at 200 rpm. Cultures of S. aureus were standardized by optical density (OD600nm) matching to a 0.5 McFarland standard to reach a final inoculum density in the wells of 5 × 10^5 CFU mL^−1 in TSB, supplemented with 10 μg/mL chloramphenicol. […] Black sided, 96-well, clear bottom, tissue-culture treated plates (Costar 3603) with final well volume of 200 μL were used for all agr inhibition assays. Plates were incubated in a humidified chamber at 37 °C while shaking at 260 rpm. After 24 hours, plates were removed and OD600 and fluorescence were measured by plate reader at an excitation of 493 nm and emission of 535 nm. All tests were performed in triplicate and repeated using a new stock of bacteria on a separate day.

[7] = test system: agr activity, AH1747 (agr III); assay: microbe, parasite or virus in culture; type: cell-based; details: Staphylococcus aureus, 24 h; for IC50: read-out: IC50 for quorum sensing inhibitory activity; for IC90: read-out: IC90 for quorum sensing inhibitory activity
Procedure: as §2

[8] = test system: agr activity, AH1872 (agr IV); assay: microbe, parasite or virus in culture; type: cell-based; details: Staphylococcus aureus, 24 h; for IC50: read-out: IC50 for quorum sensing inhibitory activity
Procedure: as §2

[9] = test system: agr activity, AH430 (agr II); assay: microbe, parasite or virus in culture; type: cell-based; details: Staphylococcus aureus, 24 h; for IC50: read-out: IC50 for quorum sensing inhibitory activity; for IC90: read-out: IC90 for quorum sensing inhibitory activity
Procedure: as §2

[10] = test system: all S. aureus accessory gene regulator (agr) alleles; assay: microbe, parasite or virus in culture; type: cell-based; details: Staphylococcus aureus, read-out: IC50 values for quorum sensing inhibition, range over all four agr types
Procedure: as §2

[11] = HaCaT cytotoxicity assay (LDH); type: cell-based; details: human, HaCaT keratinocyte cells, read-out: IC50 for cytotoxicity to HaCaTs
Procedure: The HaCaT cell line was maintained and cytotoxicity of compounds (1-3) were assessed using the LDH cytotoxicity assay as previously described. The Therapeutic Index (TI) was calculated as a ratio of the TD50 (Toxic dose for cytotoxicity at IC50) and ED50 (effective dose for quorum sensing inhibiton IC50): = TD50/ED50 . Cytotoxicity of supernatants was further evaluated using a viability/cytotoxicity assay and imaged with fluorescent microscopy as previously described. All tests were performed in triplicate and the full experiment was repeated on a separate day using fresh cell stock.

[12] = test system: S. aureus UAMS-1 biofilm; assay: Biofilm formation, human plasma protein-coated microtiter assay; type: cell-based, Staphylococcus aureus; details: crystal violet; for concentrations that reduced biofilm: for 2 and 3 bacterial growth also reduced
Procedure: All compounds were examined (2–281 μM) for impact on S. aureus biofilm formation using a human plasma protein-coated assay as previously described[49],[51],[52]. Additionally, to monitor for any growth impact in this assay, the optical density of planktonic cells in the biofilm wells was calculated by transferring the supernatant to a new 96-well plate and reading the OD600nm in a BioTek plate reader. S. aureus isolate UAMS-1 was used for the biofilm assay, and its isogenic sarA mutant (UAMS-929), which has a biofilm deficient phenotype, served as a positive control. All tests were performed in triplicate and repeated using a new stock of bacteria on a separate day.

[13] = test system: MRSA (LAC, USA300); assay: Murine model of MRSA skin infection (dermonecrosis); type: in vivo; details: BALB/c mice, intradermal, 1×10^8 CFU LAC with single 50 µg dose at time of infection; vs DMSO vehicle
Excerpt: A previously described murine model of MRSA skin infection was used to determine the efficacy of each Schinus compound as an anti-infective[25]. All animal experiments described herein were approved by and conducted in accordance with the recommendations of the Animal Care and Use Committee at the University of Colorado Anschutz Medical Campus (IACUC protocol number 117217). One day prior to inoculation, the abdominal hair of 8 week old female BALB/c mice was shaved and chemically removed with topical application of Nair for 1 minute. LAC (USA300, AH1263) was grown in TSB media overnight at 37 °C in a shaking incubator (200 rpm). Overnight LAC culture was diluted 1:100 in fresh TSB media and allowed to grow to early log phase (~2 hr to OD600nm 0.5). Cells were washed in sterile PBS and resuspended to achieve an inoculum of 1×10^8 CFU. 50 μL inoculum suspensions containing 1×10^8 CFU LAC and 50 μg of each compound 1-3 (diluted in DMSO) or DMSO vehicle control were injected intradermally into the abdominal skin of each BALB/c mouse. Baseline body weights for the mice were taken prior to injection and each day following. For determination of lesion size, digital photos of skin lesions were taken with an iPhone camera and analyzed with ImageJ software for Mac. Inoculum CFU was verified by serial dilution, plating, and colony counting after overnight incubation of the plate.

[14] = Staphylococcus aureus, UAMS1, ≥90% growth inhibition
[15] = UAMS-929, ≥90% growth inhibition, ND = not detected at 4–563 μM
[16] = AH1263, LAC (agr I), ≥90% growth inhibition, ND = not detected at test range 4–563 μM

Row | Compound | MIC ([1]; Staphylococcus aureus) | IC50 ([1]; Staphylococcus aureus) | IC50 ([2]; Staphylococcus aureus) | MIC ([2]; Staphylococcus aureus) | IC50 ([3]; Staphylococcus aureus) | MIC ([3]; Staphylococcus aureus) | IC50 ([4]; Staphylococcus aureus) | MIC [4, 14] | MIC ([4]; ≥90% growth inhibition) | MIC ([5]; Staphylococcus aureus, UAMS929) | IC50 [6] | IC50 [7] | IC90 [7] | IC50 [8] | IC50 [9] | IC90 [9] | IC50 [10] | IC50 [11] | concentrations that increased biofilm formation [12] | concentrations that reduced biofilm [12] | other results
1 | CC(=CCCC(C)C1CCC2(C)C3=CCC4C(C)(C)C(O)CCC4(C)C3CCC12C)C(=O)O (stereo not drawn) [Compound 3, 3α-hydroxytirucalla-7,24Z-dien-26-oic acid] | 141 µM (≈ 64.4 µg/mL) | 35 µM | 9 µM | 18 µM (≈ 8.22 µg/mL) | 18 µM | 281 µM (≈ 128 µg/mL) | 35 µM | 70 µM (≈ 32 µg/mL) | 70 µM (≈ 32 µg/mL) | 70 µM (≈ 32 µg/mL) | 4 µM | 9 µM | 18 µM | 9 µM | 9 µM | 281 µM | 4 to 9 µM | 70 µM | 2 to 16 µM | ≥ 35 µM | MIC [2]: 18 µM (≈ 8.22 µg/mL); IC50 ([5]; Staphylococcus aureus): 35 µM; MIC [5, 15]: 70 µM (≈ 32 µg/mL); IC90 ([8]; read-out: IC90 for quorum sensing inhibitory activity): 281 µM
2 | CC1(C)CCC2(C(=O)O)CCC3(C)C(=CCC4C5(C)CCC(=O)C(C)(C)C5CCC43C)C2C1 (stereo not drawn) [Compound 1, 3-oxo-olean-12-en-28-oic acid] | – | – | 141 µM | 281 µM (≈ 128 µg/mL) | – | – | > 563 µM | > 563 µM | – | – | 18 µM | 70 µM | 281 µM | 35 µM | 4 µM | 70 µM | 4 to 70 µM | 140 µM | 2 to 70 µM | 141 to 281 µM | MIC [1, 16]: > 563 µM; growth inhibition ([2]; at up to 80 µM): ~ 15%
3 | CC(=CCCC(C)C1CCC2(C)C3=CCC4C(C)(C)C(=O)CCC4(C)C3CCC12C)C(=O)O (stereo not drawn) [Compound 2, 3-oxotirucalla-7,24Z-dien-26-oic acid] | 563 µM (≈ 256 µg/mL) | 141 µM | – | – | 9 µM | 18 µM (≈ 8.18 µg/mL) | 35 µM | 70 µM (≈ 31.8 µg/mL) | 70 µM (≈ 31.8 µg/mL) | 70 µM (≈ 31.8 µg/mL) | 4 µM | 9 µM | 281 µM | 9 µM | 2 µM | 281 µM | 2 to 9 µM | 70 µM | 2 to 16 µM | ≥ 35 µM | MIC [1, 16]: 563 µM (≈ 256 µg/mL); MIC [3]: 18 µM (≈ 8.18 µg/mL); IC50 ([5]; Staphylococcus aureus): 35 µM; MIC [5, 15]: 70 µM (≈ 31.8 µg/mL); dermonecrotic lesion / skin damage [13]: reduced the dermonecrotic lesion area to nearly undetectable levels; also recorded: decreased MRSA-associated tissue damage to the limit of detection
